According to patent US20130116274A1 (RUTGERS, THE STATE UNIVERSITY OF NEW JERSEY, priority 2011, published 2013):

Legend:
[1] = tested on: Mcl-1; test: Western immunoblot, Mcl-1 levels; format: cell-based, human; conditions: C8161, UACC903 and 1205Lu cells
[2] = tested on: ERK phosphorylation; test: Western immunoblot, ERK phosphorylation; format: cell-based, human; conditions: C8161, UACC903 and 1205Lu cells; harvested xenografts showed similar results
Experimental: (§1) Protein lysates were prepared as commonly known in the art. Briefly, media was removed and cells were washed once with ice-cold phosphate buffered saline (PBS). After removal of PBS, the extraction buffer was added directly to the plates and cells were collected with a cell scraper. Cells were incubated on ice for 20 minutes. Cell debris was removed by centrifugation at 25,000×g at 4° C. for 20 minutes and supernatant taken for Western immunoblot analysis. Western Blotting was carried out with anti-PARP, anti-cleaved PARP, anti-phospho ERK, anti-total ERK, anti-a-tubulin antibodies, anti AKT and anti-Phospho AKT-S473.

[3] = tested on: UACC903 human melanoma xenografts; test: UACC903 xenografts in immunodeficient nude mice; format: in vivo
Experimental: (§2) The Institutional Review Board approved all animal studies for the Animal Care and Facilities Committee of Rutgers University. Nude mice were purchased from Taconic (Hudson, N.Y.). Cells were injected into 2 dorsal sites of each mouse at 10^6 cells per site. Tumor size was measured twice a week with a Vernier caliper and calculated as described. Once tumor volumes reached 6-10 mm^3, mice were divided into no treatment and treatment groups. […] The experiments were terminated when the xenografts in the no treatment group reached the maximum permitted size.
(§3) Briefly, UACC903 cells were injected into the dorsal flanks of nude mice. Tumors were allowed to grow to approximately 6-10 mm^3 and mice were divided into groups to obtain relatively constant tumor volumes between each group (12 mice per group).

[4] = tested on: C8161 melanoma cells; test: MTT cell viability assay, C8161; conditions: for cell proliferation and viability (number of viable cells): single agent, seven days, FIG. 1A
Experimental: (§6) MTT cell viability assays were performed as known in the art. C8161, UACC903, 1205Lu, SKMEL 187 and A2058 melanoma cell lines were used in the MTT assays. […] Viable cells were measured every day for 4 or 7 days. Absorbance was determined using a Tecan plate reader (Infinite 200 Tecan USA, Durham, N.C.) at 570 nm everyday for up to 7 days.

[5] = tested on: UACC903 melanoma cells; test: MTT cell viability assay, UACC903; format: cell-based, human; conditions: for cell proliferation and viability (number of viable cells): single agent, seven days
Experimental: as §6

[6] = tested on: C8161 human melanoma cell line; test: Three dimensional anchorage independent colony assay, C8161; format: cell-based; conditions: riluzole 10 μM, sorafenib 5 μM or both; 14 days; FIG. 2
Experimental: (§4) The cells were suspended in 0.35% agar in RPMI supplemented with 10% FBS and plated on a layer of 0.75% agar in the same medium in 12-well culture plates (1−1.5×10^4 cells/well). […] Every other day, the vehicle, or drug(s) was again added with 250 μl of complete medium. After 14 days, the colonies were stained with iodonitrotetrazolium chloride (Sigma) and photographed. The numbers of colonies were counted using Image J software. Quantitation was performed by comparing the total number of colonies from three representative photomicrographs from each experiment. The histograms represent the average of three independent experiments.

[7] = tested on: 1205Lu melanoma cells; test: Cell cycle analysis (propidium iodide flow cytometry), 1205Lu; format: cell-based, human; conditions: riluzole 10 μM, 24 hours post-treatment
Experimental: as §6

[8] = tested on: AKT phosphorylation; test: Western immunoblot, phosphorylated AKT; format: cell-based; conditions: three human melanoma cell lines (C8161, UACC903, SKMEL 28)
Experimental: as §1

[9] = tested on: SKMEL2 human melanoma cell line; test: Three dimensional anchorage independent colony assay, SKMEL2; format: cell-based; conditions: riluzole 10 μM, sorafenib 5 μM or both; 14 days; vs control group; FIG. 2
Experimental: as §4

[10] = tested on: A2058 melanoma cells; test: MTT cell viability assay, A2058; format: cell-based, human; conditions: riluzole 25 μM or 50 μM vs no treatment or vehicle (DMSO)
Experimental: as §6

[11] = tested on: 1205Lu human melanoma cell line; test: Three dimensional anchorage independent colony assay, 1205Lu; format: cell-based; conditions: riluzole 10 μM, sorafenib 5 μM or both; 14 days; FIG. 2
Experimental: as §4

[12] = tested on: UACC903 melanoma cells; test: Cell cycle analysis (propidium iodide flow cytometry), UACC903; format: cell-based, human; conditions: riluzole 10 μM, 24 hours post-treatment
Experimental: as §6

[13] = tested on: C8161 human melanoma xenografts; test: Immunohistochemistry on excised C8161 xenografts (riluzole/MK2206 study); format: in vivo, mice; conditions: riluzole 10 mg/kg; for cleaved Caspase-3-positive (apoptotic) cells: MK2206 30 mg/kg, or riluzole 5 mg/kg + MK2206 15 mg/kg, combination p<0.001 vs single agent
From the text: (§5) Tissue Analytical Services at the Cancer Institute of New Jersey performed immunohistochemical staining on excised tumor xenografts to detect changes in the number of apoptotic and proliferating cells (activated Caspase 3 and Ki-67, respectively). The number of stained cells was quantified with a Digital Aperio ScanScopeGL system and ImageScope software (v 10.1.3.2028) (Aperio Technologies Inc., Vista, Calif.) according to the manufacturer's protocol.
Excised tumor samples were subjected to immunohistochemistry evaluation with the apoptosis marker, cleaved Caspase-3, and the proliferation index marker, Ki-67.

[14] = tested on: excised tumor xenografts; test: Immunohistochemistry on excised xenografts (riluzole/sorafenib study); format: in vivo, mice; conditions: for number of Ki-67 positive cells: Ki-67 immunohistochemistry; for number of positive Caspase 3 cells vs controls: cleaved Caspase 3 immunohistochemistry
From the text: as §5
Additionally, immunohistochemical analyses were performed on excised xenografts using antibodies against the cleaved form of Caspase 3 to detect apoptotic cell death, and Ki-67 to detect changes in cell proliferation.

[15] = tested on: A2058 melanoma cells; test: Cell cycle analysis (propidium iodide flow cytometry), A2058; format: cell-based, human; conditions: riluzole 10 μM, 24 hours post-treatment
Experimental: as §6

[16] = tested on: SKMEL 187 melanoma cells; test: MTT cell viability assay, SKMEL 187; format: cell-based, human; conditions: riluzole 25 μM or 50 μM vs no treatment or vehicle (DMSO)
Experimental: as §6

[17] = tested on: 1205Lu melanoma cells; test: MTT cell viability assay, 1205Lu; format: cell-based, human; conditions: for cell proliferation and viability (number of viable cells): single agent, seven days, FIG. 1C
Experimental: as §6

[18] = tested on: advanced melanoma; conditions: cited from earlier work
[19] = tested on: cleaved form of PARP; test: Western analysis, cleaved PARP; format: cell-based, human; conditions: riluzole 10 μM; UACC903, 1205Lu, A2058 cells; 24 and 48 hours
Experimental: as §1, §3

[20] = tested on: UACC903 human melanoma cell line; test: Three dimensional anchorage independent colony assay, UACC903; format: cell-based; conditions: riluzole 10 μM, sorafenib 5 μM or both; 14 days; FIG. 2
Experimental: as §4

[21] = tested on: melanoma; conditions: Phase II; cited from earlier work
[22] = tested on: 1205Lu human melanoma xenografts; test: 1205Lu xenografts in immunodeficient nude mice; format: in vivo; conditions: riluzole 10 mg/kg, sorafenib 24 mg/kg, or riluzole 5 mg/kg + sorafenib 12 mg/kg daily oral gavage; FIG. 3C
Experimental: as §2

[23] = tested on: C8161 human melanoma xenografts; test: C8161 xenografts in immunodeficient nude mice; format: in vivo; conditions: riluzole 10 mg/kg
Experimental: as §2
C8161 human melanoma cells were inoculated into the dorsal flanks of immunodeficient nude mice. 10^6 cells were inoculated into each dorsal flank of 5-6 week-old mice. When the tumors reached tumor volumes of ˜10 mm^3, the mice were randomly divided in 5 groups with similar tumor volumes. The mice were then treated by oral gavage daily, except for […] treatment, which was administered three times a week. […] Tumor volumes were determined once a week with a vernier caliper and the experiment was terminated when tumor burden in the control animals reached maximum permitted levels.

[24] = tested on: SKMEL 28 human melanoma cells; test: MTT cell viability assay, SKMEL 28; format: cell-based; conditions: single agent 10 μM, FIG. 5A
Experimental: as §6

[25] = riluzole 25 μM or 50 μM vs no treatment or vehicle (DMSO)

SMILES | Mcl-1 levels [1] | ERK phosphorylation [2] | decrease in colony formation [6] | AKT phosphorylation [8] | decrease in colony formation [9] | reduction in colony formation [11] [%] | cell proliferation and viability (number of viable cells) [4] | cleaved Caspase-3-positive (apoptotic) cells [13] | number of Ki-67 positive cells [14] | number of positive Caspase 3 cells vs controls [14] | cell proliferation and viability (number of viable cells) ([5]; FIG. 1B) | cell proliferation and viability (number of viable cells) [17] | reduction in the number of colonies [20] | further results
CCCS(=O)(=O)Nc1ccc(F)c(C(=O)c2c[nH]c3ncc(Cl)cc23)c1F [PLX4720] | does not down regulate the levels of Mcl-1 | only found to suppress ERK activity in the B-RAF^V600E cell line UACC903 | – | – | – | – | – | – | – | – | – | – | – | tumor progression ([3]; riluzole 10 mg/kg, PLX4720 20 mg/kg, or riluzole 5 mg/kg + PLX4720 10 mg/kg, FIG. 3D): not as potent as riluzole; inhibition in cell proliferation ([4]; PLX4720 10 uM): only slight inhibition in cell proliferation; IC50 ([5]; Homo sapiens, UACC-903, UACC903 cells, MTT, FIG. 1B): 100 nM
Nc1nc2ccc(OC(F)(F)F)cc2s1 [riluzole] | – | decrease in levels of ERK phosphorylation in a cell line-dependent manner | 40% | suppress AKT phosphorylation | 18% | 30 | greatest reduction in the number of viable cells | significant increase in apoptotic cells | reduced | substantial increase in the number of positive Caspase 3 cells | not as sensitive to riluzole | not as sensitive to riluzole | very little inhibitory activity | cells accumulating in the G2/M phase [7]: about half; number of viable cells [10]: significantly decreased the number of viable cells; tumor size vs controls ([3]; single agent riluzole daily by oral gavage, day 18, 12 mice per group): substantial difference between the tumor sizes; cells accumulating in the G2/M phase [12]: about half; number of viable cells [4, 25]: significantly decreased the number of viable cells; cells accumulating in the G2/M phase [15]: about half; number of viable cells [5, 25]: significantly decreased the number of viable cells; number of viable cells [16]: significantly decreased the number of viable cells; number of viable cells [17, 25]: significantly decreased the number of viable cells; patients showing measurable clinical responses ([18]; Phase 0, patients with advanced melanoma given riluzole): 34%; decrease in tumor size ([18]; Phase 0, some tumors): over 90%; cleaved form of PARP [19]: increase in the cleaved form of PARP; RECIST criteria responses [21]: no RECIST criteria responses; patients exhibiting stable disease [21]: 42%
CNC(=O)c1cc(Oc2ccc(NC(=O)Nc3ccc(Cl)c(C(F)(F)F)c3)cc2)ccn1 [sorafenib] | reduction in Mcl-1 levels was detected in sorafenib-treated UACC903 and 1205 LU cells | more highly suppress ERK phosphorylation in UACC903 and 1205Lu cells than in C8161 cells | little effect | – | more efficacious at decreasing colony formation | 30 | not very effective in suppressing C8161 cell growth | – | reduced | substantial increase in the number of positive Caspase 3 cells | substantial decrease in the number of viable cells | substantial decrease in the number of viable cells | 45% | tumor volume response compared to UACC903 xenografts [22]: more sensitive; tumor volume ([3]; riluzole 10 mg/kg, sorafenib 24 mg/kg, or riluzole 5 mg/kg + sorafenib 12 mg/kg daily oral gavage, FIG. 3B, p<0.01 single agents day 18, p<0.001 combination): statistically relevant responses; tumor volume ([23]; sorafenib 24 mg/kg, or riluzole 5 mg/kg + sorafenib 12 mg/kg daily oral gavage, FIG. 3A, p<0.001 for riluzole and combination vs NT or Veh): did not yield a significant decrease in tumor size
NC1(c2ccc(-c3nc4ccn5c(=O)[nH]nc5c4cc3-c3ccccc3)cc2)CCC1 [MK2206] | – | – | – | suppress AKT phosphorylation | – | – | – | significant increase in apoptotic cells | – | – | – | – | – | tumor volume / xenograft growth ([23]; MK2206 30 mg/kg, or riluzole 5 mg/kg + MK2206 15 mg/kg, oral gavage, FIG. 6, combination p<0.005 vs NT or vehicle): suppress the growth of the melanoma xenografts; cell proliferation ([4]; single agent 10 μM, FIG. 5A): suppress cell proliferation; cell proliferation [24]: suppress cell proliferation; number of Ki-67 positive cells ([13]; MK2206 30 mg/kg, or combination at half the dose of each (p<0.001)): decrease in the number of Ki-67 positive cells; cell proliferation ([5]; single agent 10 μM, FIG. 5A): suppress cell proliferation
